Legend:
[1] = biological target: 5-hydroxytryptamine receptor 2B (Homo sapiens, UniProt P41595); type: cell membranes, CHO-K1, Membrane; details: cho-k1; also: in other assays of this panel Not Active means under 50% inhibition at 10 µM
[2] = biological target: Prostaglandin G/H synthase 1 (Homo sapiens, UniProt P23219); experiment: biochemical; type: tissue-based, Platelet; details: platelet;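 also: inhibition of COX-1 enzyme activity, with arachidonic acid supplied as substrate; in other assays of this panel Not Active means under 50% inhibition at 10 µM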
Prostaglandin G/H synthase 1, sequence (P23219 whole entry): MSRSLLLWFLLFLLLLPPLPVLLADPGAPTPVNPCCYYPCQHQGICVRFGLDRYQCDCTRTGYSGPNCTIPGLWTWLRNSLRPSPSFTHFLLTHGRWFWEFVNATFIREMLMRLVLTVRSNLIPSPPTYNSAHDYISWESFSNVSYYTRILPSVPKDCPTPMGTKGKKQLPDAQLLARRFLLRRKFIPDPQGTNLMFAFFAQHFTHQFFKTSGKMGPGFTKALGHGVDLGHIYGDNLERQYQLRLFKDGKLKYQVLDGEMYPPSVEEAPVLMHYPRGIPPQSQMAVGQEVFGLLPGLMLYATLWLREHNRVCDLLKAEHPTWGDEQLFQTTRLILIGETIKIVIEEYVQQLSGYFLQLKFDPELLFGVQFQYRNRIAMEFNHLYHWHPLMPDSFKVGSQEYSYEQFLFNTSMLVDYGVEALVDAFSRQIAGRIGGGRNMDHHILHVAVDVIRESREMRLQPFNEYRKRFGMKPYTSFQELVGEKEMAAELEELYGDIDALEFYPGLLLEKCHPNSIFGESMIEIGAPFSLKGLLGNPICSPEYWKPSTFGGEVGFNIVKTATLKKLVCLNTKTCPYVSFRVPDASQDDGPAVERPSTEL

[3] = biological target: T1, Muscarinic acetylcholine receptor M4 (Homo sapiens, UniProt P08173); type: cell membranes, CHO-K1, Membrane; details: cho-k1; also: in other assays of this panel Not Active means under 50% inhibition at 10 µM
T1 sequence (P08173 whole entry): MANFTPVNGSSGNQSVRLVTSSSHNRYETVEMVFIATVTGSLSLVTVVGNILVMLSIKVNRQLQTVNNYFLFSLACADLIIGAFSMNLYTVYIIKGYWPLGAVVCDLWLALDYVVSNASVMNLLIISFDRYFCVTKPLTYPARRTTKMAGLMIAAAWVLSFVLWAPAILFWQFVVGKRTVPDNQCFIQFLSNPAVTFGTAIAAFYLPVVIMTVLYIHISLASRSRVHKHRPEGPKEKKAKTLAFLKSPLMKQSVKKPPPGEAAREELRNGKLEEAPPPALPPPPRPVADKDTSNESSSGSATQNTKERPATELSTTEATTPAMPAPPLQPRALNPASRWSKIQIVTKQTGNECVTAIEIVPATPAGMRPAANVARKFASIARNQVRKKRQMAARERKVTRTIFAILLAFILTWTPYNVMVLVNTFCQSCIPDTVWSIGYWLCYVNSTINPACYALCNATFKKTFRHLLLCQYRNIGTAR

[4] = DRUGMATRIX: Phorbol Ester radioligand binding (ligand: [3H] PDBu); type: cell membranes, Mus musculus, ICR, Brain, Membrane; details: Not Active = under 50% inhibition at 10 µM
[5] = biological target: Matrix metalloproteinase-9 (Homo sapiens, UniProt P14780); experiment: biochemical; type: cell-based;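 also: inhibition of isolated MMP-9 enzyme activity toward a synthetic peptide substrate, from the DrugMatrix protease screening panel; in other assays of this panel Not Active means under 50% inhibition at 10 µM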
Matrix metalloproteinase-9, sequence (P14780 whole entry): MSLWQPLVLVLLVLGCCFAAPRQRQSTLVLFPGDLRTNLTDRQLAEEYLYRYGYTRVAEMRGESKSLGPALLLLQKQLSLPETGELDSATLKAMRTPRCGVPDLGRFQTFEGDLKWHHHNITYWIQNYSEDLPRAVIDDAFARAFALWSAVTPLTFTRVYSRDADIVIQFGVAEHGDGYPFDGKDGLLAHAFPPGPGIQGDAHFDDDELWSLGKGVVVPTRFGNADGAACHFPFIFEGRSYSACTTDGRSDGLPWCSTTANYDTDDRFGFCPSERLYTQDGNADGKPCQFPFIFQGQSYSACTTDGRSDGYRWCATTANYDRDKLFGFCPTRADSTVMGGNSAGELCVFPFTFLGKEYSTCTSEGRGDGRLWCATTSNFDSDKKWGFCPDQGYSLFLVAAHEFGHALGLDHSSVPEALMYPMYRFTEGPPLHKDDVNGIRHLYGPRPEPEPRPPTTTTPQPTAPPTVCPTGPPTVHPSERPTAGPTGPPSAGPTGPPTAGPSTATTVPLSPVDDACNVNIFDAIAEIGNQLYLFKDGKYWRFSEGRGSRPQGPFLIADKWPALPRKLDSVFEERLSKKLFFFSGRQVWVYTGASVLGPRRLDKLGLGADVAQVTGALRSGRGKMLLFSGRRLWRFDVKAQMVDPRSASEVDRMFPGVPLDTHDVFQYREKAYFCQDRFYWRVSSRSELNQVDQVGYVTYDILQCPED

[6] = biological target: Mitogen-activated protein kinase 3 (Homo sapiens, UniProt P27361); experiment: DRUGMATRIX: Protein Serine/Threonine Kinase, ERK1 enzyme inhibition (substrate: Myelin Basic Protein); design: species or system Escherichia coli; details: Not Active = under 50% inhibition at 10 µM
Mitogen-activated protein kinase 3, sequence (P27361 whole entry): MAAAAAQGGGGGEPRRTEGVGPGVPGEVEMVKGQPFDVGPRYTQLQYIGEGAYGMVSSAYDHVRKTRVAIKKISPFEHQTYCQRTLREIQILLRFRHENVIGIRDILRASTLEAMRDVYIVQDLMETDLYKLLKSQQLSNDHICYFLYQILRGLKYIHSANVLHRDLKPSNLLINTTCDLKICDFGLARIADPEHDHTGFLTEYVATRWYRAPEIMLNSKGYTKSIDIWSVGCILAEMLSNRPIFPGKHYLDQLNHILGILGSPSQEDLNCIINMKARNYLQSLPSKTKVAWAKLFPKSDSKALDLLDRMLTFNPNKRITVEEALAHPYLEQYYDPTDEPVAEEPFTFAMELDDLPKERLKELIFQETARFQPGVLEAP

[7] = biological target: Voltage-gated inwardly rectifying potassium channel KCNH2 (Homo sapiens, UniProt Q12809); details: hek293; also: in other assays of this panel Not Active means under 50% inhibition at 10 µM
Voltage-gated inwardly rectifying potassium channel KCNH2, sequence (Q12809 whole entry): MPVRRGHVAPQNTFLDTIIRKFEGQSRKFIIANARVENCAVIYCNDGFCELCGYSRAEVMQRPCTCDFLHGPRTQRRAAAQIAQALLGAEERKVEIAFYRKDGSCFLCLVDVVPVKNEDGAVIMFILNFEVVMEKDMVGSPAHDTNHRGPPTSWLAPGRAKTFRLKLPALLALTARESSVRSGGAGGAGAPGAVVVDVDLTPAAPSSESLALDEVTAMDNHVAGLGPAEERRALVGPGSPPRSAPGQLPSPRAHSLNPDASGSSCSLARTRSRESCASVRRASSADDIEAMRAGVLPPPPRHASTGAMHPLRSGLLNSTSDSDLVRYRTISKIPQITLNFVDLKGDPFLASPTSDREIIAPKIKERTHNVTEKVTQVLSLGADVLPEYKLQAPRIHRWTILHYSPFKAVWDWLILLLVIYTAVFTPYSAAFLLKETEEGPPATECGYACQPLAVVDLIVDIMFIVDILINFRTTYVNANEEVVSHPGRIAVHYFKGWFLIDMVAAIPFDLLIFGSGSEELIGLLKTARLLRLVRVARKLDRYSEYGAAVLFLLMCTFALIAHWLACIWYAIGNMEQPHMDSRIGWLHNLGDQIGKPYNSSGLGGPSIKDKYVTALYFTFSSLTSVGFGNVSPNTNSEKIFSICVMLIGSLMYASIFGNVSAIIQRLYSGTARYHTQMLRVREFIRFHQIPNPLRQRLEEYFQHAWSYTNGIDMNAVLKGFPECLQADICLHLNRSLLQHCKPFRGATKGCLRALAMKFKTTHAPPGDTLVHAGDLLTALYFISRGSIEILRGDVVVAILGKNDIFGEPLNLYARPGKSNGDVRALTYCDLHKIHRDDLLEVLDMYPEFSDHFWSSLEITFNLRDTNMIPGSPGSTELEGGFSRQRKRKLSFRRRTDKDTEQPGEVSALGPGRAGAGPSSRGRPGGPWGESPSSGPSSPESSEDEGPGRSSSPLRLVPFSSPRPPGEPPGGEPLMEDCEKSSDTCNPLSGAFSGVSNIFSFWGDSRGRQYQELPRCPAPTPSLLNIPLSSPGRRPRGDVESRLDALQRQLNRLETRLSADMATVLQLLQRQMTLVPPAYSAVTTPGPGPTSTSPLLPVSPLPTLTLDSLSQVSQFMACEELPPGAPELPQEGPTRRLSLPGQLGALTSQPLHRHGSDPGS

5-hydroxytryptamine receptor 2B, sequence (P41595 whole entry): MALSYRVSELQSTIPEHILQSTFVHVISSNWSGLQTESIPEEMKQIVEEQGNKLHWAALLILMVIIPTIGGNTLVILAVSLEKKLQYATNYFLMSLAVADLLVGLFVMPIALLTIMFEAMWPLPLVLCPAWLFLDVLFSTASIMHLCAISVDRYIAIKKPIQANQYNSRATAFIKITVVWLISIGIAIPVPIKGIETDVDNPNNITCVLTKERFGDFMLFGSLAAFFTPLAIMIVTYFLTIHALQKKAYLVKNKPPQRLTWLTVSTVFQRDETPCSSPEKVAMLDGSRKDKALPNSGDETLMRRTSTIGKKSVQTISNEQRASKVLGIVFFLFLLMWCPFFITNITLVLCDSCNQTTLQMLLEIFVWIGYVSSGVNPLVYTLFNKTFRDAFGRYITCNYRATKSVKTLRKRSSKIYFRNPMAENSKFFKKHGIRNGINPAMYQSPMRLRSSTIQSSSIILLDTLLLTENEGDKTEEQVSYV

CC[C@H](C)C(=O)O[C@H]1C[C@H](O)C=C2C=C[C@H](C)[C@H](CC[C@@H](O)C[C@@H](O)CC(=O)O)[C@H]21 [PRAVASTATIN]
Not Active: IC50 [1] | IC50 [2] | IC50 [3] | IC50 [4] | Ki [4] | IC50 [5] | IC50 [6] | IC50 [7] | Ki [7]

CCOC(=O)n1ccn(C)c1=S [CARBIMAZOLE]
Not Active: IC50 [1] | IC50 [2] | IC50 [3] | IC50 [4] | Ki [4] | IC50 [5] | IC50 [6] | IC50 [7] | Ki [7]

C#C[C@]1(O)CC[C@H]2[C@@H]3CCC4=Cc5oncc5C[C@]4(C)[C@H]3CC[C@@]21C [DANAZOL]
Not Active: IC50 [1] | IC50 [2] | IC50 [3] | IC50 [4] | Ki [4] | IC50 [5] | IC50 [6] | IC50 [7] | Ki [7]
